Where two headings read alike, the source gives them in different places.
Experiments:
[1] = test system: Ba/F3 cell line expressing EGFR L858R/T790M/C797S; assay: Inhibitory effect on cancer cell growth (MTT), Ba/F3 L858R/T790M/C797S; format: cell-based, Murine; conditions: read-out: L858R/T790M/C797S (IC50)
Procedure: (§1) The inhibitory effect on the growth of a C797S-expressed triple mutant Ba/F3 cancer cell line was measured for the compounds obtained in the examples above. The kinase assay and anticancer efficacy activity using a Ba/F3 stable cell line were measured by the following method:
(§2) 1. […] All constructs were retroviral vectors and finally completed viral particles for infection.
(§3) 2. Construction of Ba/F3 stable cell lines: Murine lymphoid cells undergo IL-3 dependent growth. […] Briefly, each construct was infected into Ba/F3 cell lines, and after 48 hours, IL-3 was removed with media exchange and cells were cultured. However, puromycin selection was performed for wild type EGFR.
(§4) 3. Identification of Ba/F3 stable cell lines: All stable cell lines were subjected to western blotting to confirm the expression of each construct and EGFR activity (EGFR wild type and L858R were omitted).
(§5) 5. Anticancer effect verification by MTT assay: 2×10^3 cells were seeded in a 96-well plate. After 24 hours, each of the drugs was treated in a dose-dependent manner, incubated for 72 hours, reacted with 15 μL of MTT reagent for 4 hours, and then 100 μL of 10% SDS was added thereto and incubated for 24 hours. […] MTT results were analyzed by measuring IC50 values through prism software.

[2] = target: MET kinase (Homo sapiens (Human), UniProt P08581); assay: Kinase inhibitory activity, MET; format: biochemical; conditions: 33P-ATP filter assay, about 40 minutes at room temperature
Procedure: The kinase inhibitory activity was measured by the following method:
The compound to be evaluated (DMSO solution) and Mg/ATP were added to proceed the reaction.
After about 40 minutes at room temperature, the reaction was stopped by the addition of 10 μL of 0.5% phosphoric acid.
10 μL of 0.5% reaction solution was spotted onto a P30 filtermat.
Washed 4 times for about 4 minutes in 0.425% phosphoric acid. Washed once in methanol, and then dried and analyzed by scintillation counting to measure IC50 value.

[3] = test system: Ba/F3 cell line expressing EGFR DEL19/T790M/C797S; assay: Inhibitory effect on cancer cell growth (MTT), Ba/F3 DEL19/T790M/C797S; format: cell-based, Murine; conditions: for IC50: read-out: DEL19/T790M/C797S (IC50); for inhibitory activity on C797S mutant EGFR-expressed cancer cell lines, comparison in words: both Ba/F3 triple mutant lines of Table 2
Procedure: as §1, §2, §3, §4, §5

[4] = Mus musculus, BaF3, Ba/F3 stable cell line, MTT, 72 hours, GI50
[5] = Ba/F3 stable cell line, MTT, 72 hours, GI50

Sequence of MET kinase (P08581 25-1390): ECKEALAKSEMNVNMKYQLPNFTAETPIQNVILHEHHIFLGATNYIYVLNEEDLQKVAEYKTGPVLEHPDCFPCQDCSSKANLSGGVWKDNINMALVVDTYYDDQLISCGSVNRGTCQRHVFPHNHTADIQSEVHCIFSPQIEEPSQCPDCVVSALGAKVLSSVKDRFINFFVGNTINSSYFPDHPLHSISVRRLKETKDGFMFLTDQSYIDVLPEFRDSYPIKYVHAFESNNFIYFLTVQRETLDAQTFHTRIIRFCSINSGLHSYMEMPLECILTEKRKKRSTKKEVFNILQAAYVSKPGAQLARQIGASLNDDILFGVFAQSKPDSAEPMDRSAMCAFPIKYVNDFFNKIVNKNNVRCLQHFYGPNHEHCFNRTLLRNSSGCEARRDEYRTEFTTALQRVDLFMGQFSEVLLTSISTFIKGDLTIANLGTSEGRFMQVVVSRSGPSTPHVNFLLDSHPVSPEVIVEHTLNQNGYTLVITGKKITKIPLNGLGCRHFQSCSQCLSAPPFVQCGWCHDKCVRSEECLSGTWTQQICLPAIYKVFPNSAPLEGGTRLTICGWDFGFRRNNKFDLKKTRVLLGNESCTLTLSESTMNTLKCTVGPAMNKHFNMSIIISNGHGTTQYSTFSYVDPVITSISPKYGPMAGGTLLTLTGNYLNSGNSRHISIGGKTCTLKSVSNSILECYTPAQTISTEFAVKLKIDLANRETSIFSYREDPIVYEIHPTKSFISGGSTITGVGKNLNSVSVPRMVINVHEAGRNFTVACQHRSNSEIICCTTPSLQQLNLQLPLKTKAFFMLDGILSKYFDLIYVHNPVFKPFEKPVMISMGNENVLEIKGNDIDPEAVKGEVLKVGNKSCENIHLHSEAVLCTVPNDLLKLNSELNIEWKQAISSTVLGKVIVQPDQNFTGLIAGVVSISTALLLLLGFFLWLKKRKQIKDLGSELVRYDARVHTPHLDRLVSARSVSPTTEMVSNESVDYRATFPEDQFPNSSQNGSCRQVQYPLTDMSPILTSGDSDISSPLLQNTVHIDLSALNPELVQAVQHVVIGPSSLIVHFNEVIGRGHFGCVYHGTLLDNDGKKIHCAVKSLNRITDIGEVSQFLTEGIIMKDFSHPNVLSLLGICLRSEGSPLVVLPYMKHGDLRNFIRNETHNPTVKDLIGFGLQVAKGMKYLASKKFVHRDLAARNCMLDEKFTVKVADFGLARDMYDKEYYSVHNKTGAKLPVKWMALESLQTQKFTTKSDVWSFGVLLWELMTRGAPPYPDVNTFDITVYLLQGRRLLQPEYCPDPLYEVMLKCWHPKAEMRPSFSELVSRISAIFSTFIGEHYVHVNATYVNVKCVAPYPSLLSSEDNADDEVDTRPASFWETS

Compound	IC50 ([1]; Mus musculus, BaF3, 72 h)	IC50 [2]	IC50 ([3]; Mus musculus, BaF3, 72 h)	inhibitory activity on C797S mutant EGFR-expressed cancer cell lines, comparison in words [3]	IC50 [1, 4]	IC50 [3, 4]	IC50 [1, 5]	IC50 [3, 5]
COc1cc(N2CCC(N3CCN(C)CC3)CC2)ccc1Nc1ncc(Cl)c(Nc2ccccc2P(C)(C)=O)n1 [Brigatinib]	860 nM	70 nM	560 nM	very less active	–	–	–	–
COc1cc(N2CCC(N3CCN(C)CC3)CC2)ccc1Nc1ncc(Cl)c(Nc2ccccc2N(C)S(C)(=O)=O)n1 [Example 1, N-(2-((5-chloro-2-((2-methoxy-4-(4-(4-methylpiperazin-1-yl)piperidin-1-yl)phenyl)amino)pyrimidin-4-yl)amino)phenyl)-N-methylmethanesulfonamide]	–	1 nM	–	–	160 nM	210 nM	–	–
COc1cc(C2CCNCC2)ccc1Nc1ncc(Cl)c(Nc2ccccc2NS(C)(=O)=O)n1 [TRE-069]	–	120 nM	–	very less active	–	–	4000 nM	5000 nM
COc1cc(N2CCC(N(C)C)CC2)ccc1Nc1ncc(Cl)c(Nc2ccccc2N(C)S(C)(=O)=O)n1 [Example 3, N-(2-((5-chloro-2-((4-(4-(dimethylamino)piperidin-1-yl)-2-methoxyphenyl)amino)pyrimidin-4-yl)amino)phenyl)-N-methylmethanesulfonamide]	–	–	–	–	531 nM	323 nM	–	–
COc1cc(N2CCC(N3CCN(C)CC3)CC2)ccc1Nc1ncc(Cl)c(Nc2cc(F)ccc2N(C)S(C)(=O)=O)n1 [Example 2, N-(2-((5-chloro-2-((2-methoxy-4-(4-(4-methylpiperazin-1-yl)piperidin-1-yl)phenyl)amino)pyrimidin-4-yl)amino)-4-fluorophenyl)-N-methylmethanesulfonamide]	–	–	–	–	533 nM	222 nM	–	–
